Measured values as given in patent publication US11629174B2, “Cryptic metabolites and method for activating silent biosynthetic gene clusters in actinomycete bacteria” (The Trustees of Princeton University, priority 2017, dated 2023).
pIC50: −log10 of the molar value. Where two headings read alike, the source gives them in different places. Square brackets hold non-standard residues; d marks the D form. Peptide text beside a SMILES is read from it. * marks the point of attachment. ξ: configuration not given here. dIle(3ξ) = CCC(C)[C@@H](N)C(=O)O; Ile(3ξ) = CCC(C)[C@H](N)C(=O)O; ξK = NCCCCC(N)C(=O)O; Butyryl = CCCC(=O)*

Assays:
cathepsin B = biological target: T1, cathepsin B (Homo sapiens, UniProt P07858); assay: Cathepsin B inhibition assay (fluorescence kit); format: biochemical
T1 construct: purchased Sigma-Aldrich
Protocol: Cathepsin B inhibition assays were carried as previously reported using the Cathepsin B Inhibition assay kit (Sigma-Aldrich). The fluorescence-based assays was conducted in a final volume of 50 μL according to manufacturer instructions. Fluorescence emission was determined in a microtiter plate in kinetic mode (1 read per minute for 1 h) using a BioTek H1MF plate reader and Aex˜400/Acm˜505 nm. IC50 values were subsequently calculated according to instructions.

sur cluster = assay: High-throughput elicitor screen (HiTES), eGFPx3 reporter strains of the sur cluster; format: cell-based, Streptomyces albus J1074; conditions: attB::Psur-eGFPx3 and surE::eGFPx3, ~33 μM, 60 h, hit threshold 2.5-fold eGFP fluorescence
Protocol: These next four steps are seen be referring to the previously described example. In the previously described example, HiTES was carried out using the two constructs seen in FIGS. 2B and 2C with a ˜500-member natural products library. Each S. albus construct was grown in a 96-well format, supplemented with the compound library, and the effect of each compound on the silent BGC determined using eGFP-derived fluorescence. Interference from naturally fluorescent compounds in the library was eliminated by subtracting the […], immediately after addition of the library members.
Referring to FIGS. 3A and 3B, results for both genetic constructs are shown. These graphs show relative expression of a neutral site reporter, attB::Psur-eGFPx3 (FIG. 3A) or targeted sur reporter, surE::eGFPx3 (FIG. 3B) as a function of exogenously-supplied small molecules. Each bar represents the level of expression of sur in the presence of a single candidate elicitor. Plus signs denote the positive control, attB::PermE-eGFPx3. Minus signs denote the negative controls, attB::Psur-eGFPx3 (3A) or surE::eGFPx3 (3B) in the absence of any metabolites. The expression has been normalized to the positive control.
In this example, the threshold amount was a 2.5 fold induction of eGFP-derived fluorescence emission. Thus, hits were considered those that gave at least a 2.5-fold induction of eGFP-derived fluorescence emission. However, in other embodiments, hits may be those giving at least a 2 fold induction, more preferably at least a 3 fold induction, and more preferably at least a 4 fold induction.
Seed cultures for the reporter strains sur::eGFPx3, attB::Psur-eGFPx3, negative control wild-type, and positive control attB::PermE-eGFPx3 inoculated by transferring fresh spores (˜10^7) into 20 mL of YEME medium (per L: 3% (w/v) yeast extract, 5% peptone, 3% malt extract, 1% glucose and 10.7% sucrose, and 5 mM MgCl2.6H2O) in a 125 mL Erlenmeyer flask equipped with stain-less steel springs. The cultures were grown at 30° C. and 250 rpm for 3 days. Mycelia from each of the four cultures were collected by centrifugation (10 min, 3000 g, RT) and diluted into 150 mL of R4 medium to give a final concentration of 0.05% (w/v). R4 medium consisted of (per L) 0.5% (w/v) glucose, 0.1% yeast extract, 0.5% MgCl2.6H2O, 0.2% CaCl2.2H2O, 0.15% proline, 0.118% valine, 0.28% TES, 50 mg/L casamino acid, 100 mg/L K2SO4, and 1× trace element solution, which contains 40 mg/L ZnCl2, 200 mg/L FeCl3.6H2O, 10 mg/L CuCl2.2H2O, 10 mg/L MnCl2.4H2O, 10 mg/L Na2B4O7.10H2O, and 10 mg/L (NH4)6Mo7O24.4H2O).
Subsequently, the two reporter strains (sur::eGFPx3 and attB::Psur-eGFPx3) were each dispensed into 5× sterile, clear-bottom 96-well plates (150 μL per well) using a MultiFlo Microplate Dispenser (BioTek). A separate sterile 96-well separate plate was prepared for positive and negative controls; it contained the negative control (wt S. albus J1074) in columns 1-3, sur::eGFPx3 in columns 4-6, attB::Psur-eGFPx3 in columns 7-9, and the positive control attB::PermE-eGFPx3 in columns 10-12 of the plate. No elicitors were added to the control plates. […] Upon additional of the compound library, t=0 fluorescence reads were recorded on a Synergy H1MF plate reader (BioTek) using Aex=485 nm and Aem=505-650 nm in 5 nm steps. […]

Gene cluster 3648 = assay: HiTES in S. avermitilis, gene cluster 3648; format: cell-based; conditions: FIGS. 16 and 17
surA and surC = assay: RT-qPCR of surA and surC transcripts in wt S. albus; format: cell-based, Streptomyces albus J1074; conditions: for induction of surA and surC: mRNA vs DMSO control, wt S. albus
Protocol: In the example above, the effects of these putative elicitors on the sur cluster were validated by performing a RT-qPCR with wt S. albus. Upon exposure of S. albus to each elicitor or DMSO (control), total RNA was be isolated, converted to cDNA and the surA and surC transcripts quantified by qPCR. […] To further verify the effect of 1 and 2, a dose-response assay was carried out. With both elicitors, a concentration-dependent induction of sur was observed, yielding optimal upregulation at a final concentration of ˜23 μM (etoposide) and −30 μM (ivermectin) (FIG. 4B). These concentrations induced a ˜10-fold (etoposide) and 4.5-fold (ivermectin) upregulation of surC.
All operations involving RNA utilized a dedicated RNase-free work area. To commence the experiment, seed cultures of wt S. albus J1074 were prepared by inoculating 3 ml of TSBY medium (3% (w/v) tryptic soy broth and 0.5% yeast extract) in a sterile 14 ml bacterial culture tube with freshly-prepared spores (˜10^7). The culture was incubated at 30° C. and 250 rpm in an Ecotron Shaker (ATR). After 48 hours cultivation, the cells were collected by centrifugation and subsequently diluted to a final concentration of 0.05% (w/v) in 250 ml Erlenmeyer flask containing 50 ml of R4 medium. Desired elicitors were added to final concentrations indicated in the figures (typically 1-100 μM), and the cultures were incubated at 30° C. and 250 rpm. After 48 h, 1 ml was removed from each sample and transferred to a 1.5 ml RNase-free Eppendorf tube (Ambion). Each sample was centrifuged (16,000 g, 3 min) to collect the cells, the supernatant discarded, the cells flash-frozen in liquid N2, and stored at −80° C.
RNA isolation was carried out using the Qiagen RNeasy kit following the manufacturer's instructions without modifications. Upon isolation, contaminating DNA was removed using the DNA-free kit (Ambion) according to manufacturer's instructions. Gel electrophoreses subsequently confirmed RNA integrity (FIG. S2). Finally, total RNA was converted into cDNA via the PrimeScript™ RT reagent Kit (Takara) using random hexamers as primers and 500 ng of each RNA sample as template.
Three genes (surA, surC and surR) were chosen for quantification by RT-qPCR. The primers were designed using primer-3-plus software available online. The primers were carefully chosen to give an amplicon length of 130-160 bp and a melting temperature of 60° C., though this was later optimized (see below and Table 2). The primers were chosen to vary in length between 18-22 bp, and, if possible, to contain a single G/C clamp at the 3′ end. To ensure optimal qPCR parameters, the genomic DNA of S. albus J1074 was isolated using the Wizard genomic DNA purification kit (Promega), and each amplicon was subsequently amplified using standard PCR conditions with a high-fidelity, proof-reading Q5 DNA polymerase (NEB). The PCR reactions were then separated on a 1.2% agarose gel, the amplicon excised, and gel-extracted with the Gel Extraction kit (Qiagen). The extracted DNA was used to optimize qPCR conditions. Using the amplicon template, the primer concentrations were first varied followed by the annealing/extension temperatures, which ranged from 58-68° C. in eight steps. The combination that gave the lowest quantification cycle (Cq) was used in the experiments (Table 2). The Cq was obtained with an automatic baseline determined by the CFX Manager Software (Bio-Rad). As positive controls, these standards were included in every plate that contained the experimental samples, along with no-DNA controls, in duplicates.
qPCR analysis was performed on a CFX96 Real-Time PCR Detection System (Bio-Rad) consisting of a C1000 Thermal Cycler and a CFX96 Real-Time System. The reaction was carried out in hard-shell, clear 96-well qPCR plates (Bio-Rad) and utilized the iTaq Universal SYBR Green Supermix (Bio-Rad). […]

[1] = system: 36 diverse cancer cell lines; conditions: cited from earlier work
Gene cluster 4286 = assay: HiTES in S. erythraea, gene cluster 4286; format: cell-based; conditions: FIG. 13
Gene cluster 2631 = assay: HiTES in S. erythraea, gene cluster 2631; format: cell-based; conditions: FIG. 10
Gene cluster 4143 = assay: HiTES in S. erythraea, gene cluster 4143; format: cell-based; conditions: FIG. 12
Gene cluster 4477 = assay: HiTES in S. erythraea, gene cluster 4477; format: cell-based; conditions: FIG. 14
S. cerevisiae = assay: Antifungal microtiter assay; format: cell-based; conditions: Saccharomyces cerevisiae, 40 h, OD600
Protocol: Bacillus subtilis 168, E. coli K 12, Pseudomonas aeruginosa PAO1, Enterococcus faecalis OG1RF, Staphylococcus aureus Newman, Saccharomyces cerevisiae and Saccharomyces pombe were used for antibiotic assays. B. subtilis (30° C.), E. coli (37° C.), P. aeruginosa (30° C.), and E. faecalis (37° C.) were cultured in LB medium at the temperatures indicated. S. aureus was cultured in Brain-Heart-Infusion (BHI) medium at 37° C. S. cerevisiae and S. pombe were grown at 25° C. in YPM medium (0.5% yeast extract, 0.3% peptone, 2.5% mannitol), and YES medium (0.5% yeast extract, 3% glucose, 225 mg/L leucine, 225 mg/L histidine, 225 mg/L adenine, 225 mg/L uracil), respectively. The assays were carried out in accordance with the 2003 guidelines of the Clinical and Laboratory Standards Institute (CLSI) using the microtiter method. Briefly, microbial seed cultures were initiated by inoculating 3 mL of the indicated medium each strain and by growing these overnight at the indicated temperatures. Each culture was then diluted to an initial OD600 nm of 0.02 in 100 μL volume per well in a 96-well plate, which gave an inoculum of ˜5×10^5 to 5×10^6 cells. […] The plates were then incubated at the temperatures listed above without shaking and OD600 nm determined after 16 h (bacteria) or 40 h (yeast). […]

Molecule: CC(C)C[C@H]1NC(=O)[C@@H](Cc2ccccc2)NC(=O)[C@H](C(C)C)NC(=O)[C@H](CCCCN)NC(=O)[C@@H](C(C)C)NC(=O)[C@H](C(C)C)NC(=O)[C@@H](C)NC(=O)[C@H](C(C)C)NC1=O [surugamide I] (cyclo(KV[dF][dL]V[dA]V[dV]))
- pIC50 (cathepsin B): 5.05

Molecule: Oc1cc(O)cc(/C=C/c2ccc(O)c(O)c2)c1 [piceattanol]
- induction of the sur cluster in both reporter strains (hit ranking) (sur cluster): best hits

Molecule: CC#C[C@]1(O)CC[C@H]2[C@@H]3CCC4=CC(=O)CCC4=C3[C@@H](c3ccc(N(C)C)cc3)C[C@@]21C [Mifepristone]
- elicitor of gene cluster 3648 (ranking) (Gene cluster 3648): top four elicitors

Molecule: COc1cc(CNC(=O)CCCC/C=C/C(C)C)ccc1O [Capsacin]
- elicitor of gene cluster 3648 (ranking) (Gene cluster 3648): top four elicitors

Molecule: CC(C)[C@@]1(NC(=O)[C@@H]2C[C@@H]3c4cccc5[nH]cc(c45)C[C@H]3N(C)C2)O[C@@]2(O)[C@@H]3CCCN3C(=O)[C@H](Cc3ccccc3)N2C1=O [dihydroergocristine]
- induction of the sur cluster in both reporter strains (hit ranking) (sur cluster): best hits
- induction of surA and surC (surA and surC): 3 fold

Molecule: bromolaudanosine
- induction of the sur cluster in both reporter strains (hit ranking) (sur cluster): best hits

Molecule: CNC1=CC(=O)c2cc(C)ncc2C1=O [compound 25, 3-methyl-7-methylamino-5,8-isoquinolinedione]
- pIC50 ([1]; read-out: IC50s (range over panel)): 4.30 to 6.70
- pIC50 ([1]; read-out: mean IC50): 5.46

Molecule: CC[C@H](C)/C=C(C)/C=C/C1=CC2=C(Cl)C(=O)[C@](C)(OC(C)=O)C(=O)C2=CO1 [Sclerotiorin]
- elicitor of gene cluster 4286 (ranking) (Gene cluster 4286): top three elicitors

Molecule: COc1c2ccoc2cc2oc(=O)ccc12 [Bergapten]
- elicitor of gene cluster 2631 (ranking) (Gene cluster 2631): top three elicitors

Molecule: OCc1c[nH]c2ccccc12 [Indole-3-carbinol]
- elicitor of gene cluster 4143 (ranking) (Gene cluster 4143): top three elicitors
- elicitor of gene cluster 4477 (ranking) (Gene cluster 4477): top three elicitors

Molecule: CCCC(=O)NCCCCC1NC(=O)[C@@H](C(C)CC)NC(=O)[C@H](C(C)CC)NC(=O)[C@@H](C)NC(=O)[C@H](C(C)CC)NC(=O)[C@@H](CC(C)C)NC(=O)[C@@H](Cc2ccccc2)NC(=O)[C@H](C(C)CC)NC1=O (stereo partly drawn) [acylsurugamide A] (cyclo([Ile(3ξ)][dA][Ile(3ξ)][dIle(3ξ)][ξK](Butyryl)[Ile(3ξ)][dF][dL]))
- pIC50 (S. cerevisiae): 5.46

Molecule: ivermectin
- elicitor of gene cluster 4143 (ranking) (Gene cluster 4143): top three elicitors
- induction of the sur cluster in both reporter strains (hit ranking) (sur cluster): best hits
- upregulation of surC (surA and surC; at the optimal elicitor concentration, vs DMSO): 4.5 fold
- induction of surA and surC (surA and surC): 3 fold
